Like-named read-outs stand apart in the source and are kept apart here.
Assay: Percutaneous absorption testing (percent of applied dose that penetrated past the stratum corneum)
Excerpt: See Jorge, L., et al., Journal of Pain Research, Topical Preparations for Pain Relief—Efficacy and Patient Adherence, Vol. 4, No. 11-24, 2011.

[1] = 2 Hours, eight drugs dissolved together in Salt-Stable LS Advanced
[2] = 4 Hours, eight drugs dissolved together in Salt-Stable LS Advanced
[3] = 8 Hours, eight drugs dissolved together in Salt-Stable LS Advanced
[4] = 12 Hours, eight drugs dissolved together in Salt-Stable LS Advanced
[5] = 24 Hours, eight drugs dissolved together in Salt-Stable LS Advanced
[6] = 32 Hours, eight drugs dissolved together in Salt-Stable LS Advanced
[7] = 48 Hours, eight drugs dissolved together in Salt-Stable LS Advanced

| Compound | Percutaneous Absorption Testing, 2 Hours (2 h) | Percutaneous Absorption Testing, 4 Hours (4 h) | Percutaneous Absorption Testing, 8 Hours (8 h) | Percutaneous Absorption Testing, 12 Hours (12 h) | Percutaneous Absorption Testing, 24 Hours (24 h) | Percutaneous Absorption Testing, 32 Hours (32 h) | Percutaneous Absorption Testing, 48 Hours (48 h) | also measured |
| --- | --- | --- | --- | --- | --- | --- | --- | --- |
| NCC(CC(=O)O)c1ccc(Cl)cc1 (stereo not shown) [Baclofen] | 0% | 1% | 2% | 3% | 4% | 5% | 6% |  |
| CCCCN1CCCCC1C(=O)Nc1c(C)cccc1C (stereo not shown) [Bupivacaine] | 0% | 1% | 1% | 2% | 3% | 4% | 4% |  |
| CN(C)CCC=C1c2ccccc2C=Cc2ccccc21 [Cyclobenzaprine] | 0% | 2% | 3% | 5% | 7% | 8% | 10% |  |
| O=C(O)Cc1ccccc1Nc1c(Cl)cccc1Cl [Diclofenac] | 0% | 1% | 4% | 4% | 7% | 10% | 10% |  |
| NCC1(CC(=O)O)CCCCC1 [Gabapentin] |  |  |  |  |  |  |  | Percutaneous Absorption Testing, 2 Hours [1]: 0%; Percutaneous Absorption Testing, 4 Hours [2]: 0%; Percutaneous Absorption Testing, 8 Hours [3]: 1%; Percutaneous Absorption Testing, 12 Hours [4]: 2%; Percutaneous Absorption Testing, 24 Hours [5]: 2%; Percutaneous Absorption Testing, 32 Hours [6]: 3%; Percutaneous Absorption Testing, 48 Hours [7]: 3% |
| CC(C)Cc1ccc(C(C)C(=O)O)cc1 (stereo not shown) [Ibuprofen] |  |  |  |  |  |  |  | Percutaneous Absorption Testing, 2 Hours: 5%; Percutaneous Absorption Testing, 4 Hours: 8%; Percutaneous Absorption Testing, 12 Hours: 20%; Percutaneous Absorption Testing, 24 Hours: 30%; Percutaneous Absorption Testing, 32 Hours: 39%; Percutaneous Absorption Testing, 48 Hours: 39% |
| CNC1(c2ccccc2Cl)CCCCC1=O (stereo not shown) [Ketamine] |  |  |  |  |  |  |  | Percutaneous Absorption Testing, 2 Hours [1]: 4%; Percutaneous Absorption Testing, 4 Hours [2]: 7%; Percutaneous Absorption Testing, 8 Hours [3]: 20%; Percutaneous Absorption Testing, 12 Hours [4]: 25%; Percutaneous Absorption Testing, 24 Hours [5]: 38%; Percutaneous Absorption Testing, 32 Hours [6]: 51%; Percutaneous Absorption Testing, 48 Hours [7]: 51% |
| CC(=O)CCCCn1c(=O)c2c(ncn2C)n(C)c1=O [Pentoxifylline] | 3% | 7% | 26% | 34% | 53% | 71% | 71% |  |
